Experimental data as given in publication PMC13304707 (Acta Pharmaceutica Sinica. B, 2025).

Legend:
[1] = Cell cytotoxicity, CCK-8 assay; assay type: cell-based; details: African green monkey, Vero E6 cells
VPS34 = details: read-out: enzymatic inhibitory potency against VPS34; ref [30], [31], [32], [33]; cited from earlier work
[2] = Plasma PK profile after single intraperitoneal injection; assay type: in vivo, C57BL/6 mice
[3] = Tissue distribution after ip administration; assay type: in vivo, mice; details: 10 mg/kg ip
[4] = Degradation in liver microsomes; assay type: in vitro ADME
CYP3A4 = CYP3A4 (Homo sapiens, UniProt P08684); test: Screening of cytochrome P450 enzymes responsible for degradation; assay type: in vitro ADME; details: liver microsomes, CYP450 screening
CYP3A4, sequence (P08684 whole entry, species assumed): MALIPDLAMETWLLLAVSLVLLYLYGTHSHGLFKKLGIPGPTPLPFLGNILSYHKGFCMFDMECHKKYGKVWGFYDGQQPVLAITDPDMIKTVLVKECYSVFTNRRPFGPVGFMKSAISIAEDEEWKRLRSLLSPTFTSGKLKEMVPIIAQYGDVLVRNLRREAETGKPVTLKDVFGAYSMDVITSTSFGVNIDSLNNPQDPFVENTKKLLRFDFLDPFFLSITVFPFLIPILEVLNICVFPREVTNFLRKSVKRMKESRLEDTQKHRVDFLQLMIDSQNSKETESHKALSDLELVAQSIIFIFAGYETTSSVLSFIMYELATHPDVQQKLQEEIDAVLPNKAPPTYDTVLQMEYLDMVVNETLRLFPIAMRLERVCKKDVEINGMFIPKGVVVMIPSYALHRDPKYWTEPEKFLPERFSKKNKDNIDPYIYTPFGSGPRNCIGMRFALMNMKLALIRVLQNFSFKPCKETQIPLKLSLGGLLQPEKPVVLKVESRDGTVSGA

Structure (SMILES) | CC50 at 48 h [1] | IC50 (VPS34) | AUC(0-t) ([2]; C57BL/6, mouse, ip, 10 mg/kg) | Cmax ([2]; C57BL/6, mouse, ip, 10 mg/kg) | half-life ([2]; C57BL/6, mouse, ip, 10 mg/kg) | Tmax ([2]; C57BL/6, mouse, ip, 10 mg/kg, Tmax, mice, 10 mg/kg ip) | CL ([2]; mice, 10 mg/kg ip) | time to Cmax in tissues (cardiorespiratory and renal systems) [3] | time to extensive degradation to minimal levels in liver microsomes [4] | degradation upon addition of 6β-hydroxytestosterone, a specific inhibitor of CYP3A4 (CYP3A4)
Nc1ncc(-c2ccnc(Nc3ccncc3)n2)c(CC2CC2)n1 [PIK-III] | 45.8 µM | 0.018 µM |  |  |  |  |  |  |  | 
CC(C)(O)CNc1ncc(-c2ccnc(Nc3ccnc(Cl)c3)n2)c(CC2CC2)n1 [VPS34-IN-1] | 11 µM | 0.025 µM |  |  |  |  |  |  |  | 
C[C@@H]1COCCN1c1cc(=O)n2c(n1)N(Cc1cncc(Cl)c1)[C@H](C(F)(F)F)CC2 [SAR405] | […] | […] | […] | 5.82 ± 0.723 µg/mL | […] | 8.4 ± 6 min | […] | ≤ 10 min | ≤ 15 min | almost completely attenuated
CC(C)C(=O)CN1c2nc(N3CCOC[C@H]3C)cc(=O)n2CC[C@H]1C(F)(F)F [VPS34-IN-2, (2S)-8-[(3R)-3-methylmorpholin-4-yl]-1-(3-methyl-2-oxobutyl)-2-(trifluoromethyl)-3,4-dihydro-2H-pyrimido[1,2-a]pyrimidin-6-one] | 54.5 µM |  |  |  |  |  |  |  |  | 
